Reference: ChEMBL document CHEMBL1201862, “PubChem BioAssay data set” (2004)
The source made the active and inactive calls.

Columns and labels:
[1] = target: Protein-arginine deiminase type-4 (Homo sapiens, UniProt Q9UM07); test: IC50 against protein arginine deiminase 4 – biochemical, fluorescence readout, dose response (AID 492970)
[2] = A cytotoxicity screen of small molecule inhibitors of the PhoP region in Salmonella typhi identified in the primary screen. [Related pubchem assays: 1850, 1864, 1985 ]; assay type: functional
[3] = target: T1, Hexokinase HKDC1 (Homo sapiens, UniProt Q2TB90); test: activation of HKDC1 glucose phosphorylation – biochemical, W721R variant, dose response (AID 504730); assay type: functional
T1 sequence (Q2TB90 whole entry): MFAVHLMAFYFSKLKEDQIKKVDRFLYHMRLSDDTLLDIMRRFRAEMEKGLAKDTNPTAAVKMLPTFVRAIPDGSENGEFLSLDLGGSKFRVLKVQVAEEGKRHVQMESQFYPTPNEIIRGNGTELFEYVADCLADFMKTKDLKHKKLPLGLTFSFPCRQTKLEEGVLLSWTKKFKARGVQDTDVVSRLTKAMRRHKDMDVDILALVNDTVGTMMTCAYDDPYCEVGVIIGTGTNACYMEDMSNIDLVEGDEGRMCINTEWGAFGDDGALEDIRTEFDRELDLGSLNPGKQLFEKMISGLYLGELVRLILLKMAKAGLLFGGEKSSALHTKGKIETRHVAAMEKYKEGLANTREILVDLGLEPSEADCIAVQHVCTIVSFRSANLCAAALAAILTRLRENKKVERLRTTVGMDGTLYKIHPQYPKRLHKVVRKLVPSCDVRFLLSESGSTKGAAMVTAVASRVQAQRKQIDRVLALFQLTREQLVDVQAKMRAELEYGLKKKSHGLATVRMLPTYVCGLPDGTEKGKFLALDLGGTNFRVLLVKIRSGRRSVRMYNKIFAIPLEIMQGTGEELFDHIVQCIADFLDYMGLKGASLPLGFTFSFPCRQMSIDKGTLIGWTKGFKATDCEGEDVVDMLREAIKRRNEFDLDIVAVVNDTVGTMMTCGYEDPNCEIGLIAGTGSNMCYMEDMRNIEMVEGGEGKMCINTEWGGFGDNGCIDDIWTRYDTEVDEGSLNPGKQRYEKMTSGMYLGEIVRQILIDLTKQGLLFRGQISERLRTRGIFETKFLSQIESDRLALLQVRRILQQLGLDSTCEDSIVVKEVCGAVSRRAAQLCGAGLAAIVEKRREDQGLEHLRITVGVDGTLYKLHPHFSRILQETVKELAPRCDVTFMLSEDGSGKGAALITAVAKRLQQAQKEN

[4] = target: Hexokinase-1 (Homo sapiens, UniProt P19367); test: HK1 enzyme activation by HKDC1 hits – biochemical, selectivity assay for HKDC1 activator project, dose response (AID 504762); assay type: functional
[5] = target: T2, NADPH oxidase 1 (Homo sapiens, UniProt Q9Y5S8); test: potency of NOX1 inhibition in cells – cell-based, luminescence, cherry picks 2, dose response (AID 434997); assay type: functional
T2 sequence (Q9Y5S8 whole entry): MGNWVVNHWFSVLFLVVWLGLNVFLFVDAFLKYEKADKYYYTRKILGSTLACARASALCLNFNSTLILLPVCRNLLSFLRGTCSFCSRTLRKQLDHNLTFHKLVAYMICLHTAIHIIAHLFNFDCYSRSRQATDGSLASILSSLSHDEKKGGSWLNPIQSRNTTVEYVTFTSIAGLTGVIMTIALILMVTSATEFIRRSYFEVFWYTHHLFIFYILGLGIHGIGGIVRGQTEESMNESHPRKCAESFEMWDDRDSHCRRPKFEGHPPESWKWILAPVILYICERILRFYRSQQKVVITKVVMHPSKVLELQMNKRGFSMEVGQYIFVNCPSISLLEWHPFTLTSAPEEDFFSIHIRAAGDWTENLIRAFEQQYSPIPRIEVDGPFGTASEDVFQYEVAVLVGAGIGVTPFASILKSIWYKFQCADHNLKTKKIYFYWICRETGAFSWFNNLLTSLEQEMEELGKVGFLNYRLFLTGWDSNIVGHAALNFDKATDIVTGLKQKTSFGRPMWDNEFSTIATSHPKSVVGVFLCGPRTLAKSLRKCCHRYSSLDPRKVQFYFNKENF

[6] = target: T2, NADPH oxidase 1; test: HEK293 ROS counter-screen potency – cell-based, IC50, set 2, counter-screen for NOX1 inhibitor project, late-stage follow-up (AID 435002); assay type: functional
[7] = target: NADPH oxidase 4 (Homo sapiens, UniProt Q9NPH5); test: PubChem AID 435013
[8] = target: NADPH oxidase 3 (Homo sapiens, UniProt Q9HBY0); test: PubChem AID 435013
[9] = target: NADPH oxidase 2 (Homo sapiens, UniProt P04839); test: PubChem AID 435013
[10] = target: T3, Runt-related transcription factor 1/Core-binding factor subunit beta (Homo sapiens, UniProt Q01196+Q13951); test: disruptors of Runt domain/CBFb-SMMHC interaction – biochemical, FRET, Cerulean-Runt, Venus-CBFb-SMMHC, uHTS, […] (AID 1434); assay type: protein assay
[11] = target: T3, Runt-related transcription factor 1/Core-binding factor subunit beta; test: Runt domain/CBFb-SMMHC interaction disruptors – biochemical, TR-FRET (AID 1438); assay type: protein assay
[12] = target: T4, Fatty acid synthase (Homo sapiens, UniProt P49327); test: inhibition of human FAS-TE enzyme activity – biochemical, endpoint fluorescence intensity, uHTS hits, dose response (AID 624327); assay type: functional;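 note: fluorescence from hydrolysis of an O-methyl fluorescein acyl ester substrate by the enzyme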
[13] = target: T4, Fatty acid synthase; test: inhibition of human FAS-TE enzyme activity – biochemical, kinetic fluorescence intensity, dose response (AID 624326); assay type: functional;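 note: rate of fluorescence rise from hydrolysis of a fluorogenic O-methyl fluorescein ester substrate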
[14] = target: T5, E3 ubiquitin-protein ligase XIAP (Homo sapiens, UniProt P98170); test: Counter Screen using XIAP-Bir3 for Chemical Antagonists of Bir1/2 domains of IAP-family anti-apoptotic proteins. [Related pubchem assays (depositor defined):AID1018, AID1449, AID1514, AID1638, AID1749, AID1750, AID488957, AID488963]
[15] = target: T5, E3 ubiquitin-protein ligase XIAP; test: small molecules displacing peptide from XIAP – biochemical, IAP family, fluorescence polarization (AID 1018); assay type: functional
[16] = target: Tyrosine-protein phosphatase non-receptor type 12 (Homo sapiens, UniProt Q05209); test: SAR Selectivity Analysis of small molecule inhibitors of PEST using pCAP in a fluorescence assay. [Related pubchem assays (depositor defined):AID1779, AID1784, AID2135]; assay type: functional
[17] = target: T6, Dual specificity protein phosphatase 3 (Homo sapiens, UniProt P51452); test: SAR VHR1 absorbance Assay for In Vitro dose response studies. [Related pubchem assays (depositor defined):AID1654, AID1661, AID1878, AID1992, AID2004]
[18] = target: T6, Dual specificity protein phosphatase 3; test: SAR VHR1 Fluorescent Assay for In Vitro dose response studies. [Related pubchem assays (depositor defined):AID1654, AID1661, AID1878, AID1992, AID2004, AID2070, AID2085]; assay type: functional
[19] = target: T7, Tyrosine-protein phosphatase non-receptor type 22 (Homo sapiens, UniProt Q9Y2R2); test: SAR LYP1 Fluorescent Assay using OMFP substrate for In Vitro dose response studies - Set 3. [Related pubchem assays (depositor defined):AID1779, AID1784, AID2140, AID2686]; assay type: functional
T7 sequence (Q9Y2R2 whole entry): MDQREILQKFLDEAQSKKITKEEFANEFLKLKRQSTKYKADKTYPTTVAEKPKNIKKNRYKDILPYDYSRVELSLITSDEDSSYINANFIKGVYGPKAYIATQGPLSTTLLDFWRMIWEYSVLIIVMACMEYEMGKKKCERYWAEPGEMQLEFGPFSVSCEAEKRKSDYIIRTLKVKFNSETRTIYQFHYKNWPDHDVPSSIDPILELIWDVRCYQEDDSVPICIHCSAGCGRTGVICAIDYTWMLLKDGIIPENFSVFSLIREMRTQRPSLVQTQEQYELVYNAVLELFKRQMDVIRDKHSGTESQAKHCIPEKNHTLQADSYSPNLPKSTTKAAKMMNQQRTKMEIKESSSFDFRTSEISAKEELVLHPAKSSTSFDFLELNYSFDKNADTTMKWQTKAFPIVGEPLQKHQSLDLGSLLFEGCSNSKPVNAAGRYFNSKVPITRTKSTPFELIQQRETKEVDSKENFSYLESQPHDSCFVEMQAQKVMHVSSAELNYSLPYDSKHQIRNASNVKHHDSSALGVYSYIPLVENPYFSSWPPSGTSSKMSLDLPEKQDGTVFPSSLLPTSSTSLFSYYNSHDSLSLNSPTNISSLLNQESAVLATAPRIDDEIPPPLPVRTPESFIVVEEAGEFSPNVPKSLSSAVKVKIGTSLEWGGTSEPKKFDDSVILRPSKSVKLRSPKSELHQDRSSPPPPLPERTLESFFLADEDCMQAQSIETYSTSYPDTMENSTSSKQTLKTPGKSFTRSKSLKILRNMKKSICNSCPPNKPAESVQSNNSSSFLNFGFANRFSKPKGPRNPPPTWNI

[20] = target: T6, Dual specificity protein phosphatase 3; test: MOA VHR1 Fluorescent secondary assay for identification of redox-state modulating compounds. [Related pubchem assays (depositor defined):AID1654, AID1661, AID1878, AID1957]
[21] = target: T8, Tyrosine-protein phosphatase non-receptor type 7 (Homo sapiens, UniProt P35236); test: redox-active compounds inhibiting HePTP phosphatase – biochemical, fluorescence, mechanism study (AID 2068); assay type: functional
T8 sequence (P35236 whole entry): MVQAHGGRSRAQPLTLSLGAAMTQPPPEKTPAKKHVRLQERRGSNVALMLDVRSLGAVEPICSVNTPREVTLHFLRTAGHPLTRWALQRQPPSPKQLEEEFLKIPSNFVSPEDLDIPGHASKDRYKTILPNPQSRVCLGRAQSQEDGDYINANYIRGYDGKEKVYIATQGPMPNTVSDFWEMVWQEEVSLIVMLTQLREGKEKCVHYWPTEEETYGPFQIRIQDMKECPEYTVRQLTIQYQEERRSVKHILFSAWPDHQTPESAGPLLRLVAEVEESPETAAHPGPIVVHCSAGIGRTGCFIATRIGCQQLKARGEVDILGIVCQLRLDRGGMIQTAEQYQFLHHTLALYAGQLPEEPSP

[22] = target: T8, Tyrosine-protein phosphatase non-receptor type 7; test: inhibition of hematopoietic tyrosine phosphatase HePTP – biochemical, set 2, SAR follow-up (AID 449736); assay type: functional
[23] = target: T7, Tyrosine-protein phosphatase non-receptor type 22; test: inhibition of lymphoid tyrosine phosphatase LYP – biochemical, pCAP fluorogenic substrate, fluorescence, set 3, SAR follow-up (AID 449727); assay type: functional
[24] = target: T9, Dual specificity protein phosphatase 6 (Rattus norvegicus, UniProt Q64346); assay type: functional;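 note: confirmatory in vitro dose-response testing of MKP-3 inhibition; recombinant His-tagged MKP-3 made in E. coli BL21 with OMFP substrate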
T9 sequence (Q64346 whole entry): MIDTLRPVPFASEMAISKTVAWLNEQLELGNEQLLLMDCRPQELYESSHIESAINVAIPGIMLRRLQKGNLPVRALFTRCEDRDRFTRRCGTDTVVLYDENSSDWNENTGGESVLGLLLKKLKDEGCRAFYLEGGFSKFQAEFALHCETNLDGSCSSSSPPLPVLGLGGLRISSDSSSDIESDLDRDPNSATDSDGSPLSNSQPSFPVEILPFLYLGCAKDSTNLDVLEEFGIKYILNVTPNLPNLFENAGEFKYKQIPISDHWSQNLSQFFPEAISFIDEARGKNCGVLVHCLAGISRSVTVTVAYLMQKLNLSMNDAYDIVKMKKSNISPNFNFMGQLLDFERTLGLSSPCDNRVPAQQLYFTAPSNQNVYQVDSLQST

[25] = target: DNA (cytosine-5)-methyltransferase 1 (Homo sapiens, UniProt P26358); test: inhibition of DNA methylation by DNMT1 – biochemical, fluorescent molecular beacon, confirmation (AID 602386); assay type: functional
[26] = target: T10, Small ubiquitin-related modifier 1 (Homo sapiens, UniProt P63165); test: SUMO1 protein interaction blockers, potency – biochemical, fluorescence polarization, uHTS hits, dose response (AID 624382); assay type: functional; details: read-out: IC50_Mean
[27] = target: T10, Small ubiquitin-related modifier 1; test: SUMO1 protein-protein binding blockers, potency – biochemical, FRET, dose response (AID 624383); assay type: functional; details: read-out: IC50_Mean
[28] = target: T11, Low molecular weight phosphotyrosine protein phosphatase (Homo sapiens, UniProt P24666); assay type: functional; details: read-out: IC50_Mean;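 note: Dose-response confirmation assay measuring inhibition of LMPTP enzyme activity by fluorescence intensity read-out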
T11 sequence (P24666 whole entry): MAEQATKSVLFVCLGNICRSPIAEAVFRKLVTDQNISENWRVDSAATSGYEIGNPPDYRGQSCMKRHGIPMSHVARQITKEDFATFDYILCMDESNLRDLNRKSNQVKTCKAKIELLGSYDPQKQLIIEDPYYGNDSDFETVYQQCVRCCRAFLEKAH

[29] = target: T7, Tyrosine-protein phosphatase non-receptor type 22; test: PTPN22 enzyme inhibitors – biochemical, fluorescence, LYP catalytic domain, selectivity assay for LMPTP inhibitor project, dose response (AID 652006); assay type: functional; details: read-out: IC50_Mean

T6 sequence (P51452 whole entry): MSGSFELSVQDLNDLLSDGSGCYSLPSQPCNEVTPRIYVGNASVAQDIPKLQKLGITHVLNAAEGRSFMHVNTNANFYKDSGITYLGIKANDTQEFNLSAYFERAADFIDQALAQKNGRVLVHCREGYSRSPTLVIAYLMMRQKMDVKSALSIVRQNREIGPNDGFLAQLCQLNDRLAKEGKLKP
T10 sequence (P63165 whole entry): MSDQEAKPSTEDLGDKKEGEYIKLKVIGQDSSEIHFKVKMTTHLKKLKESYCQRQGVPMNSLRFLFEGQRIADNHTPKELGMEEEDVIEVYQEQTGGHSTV
T4 sequence (P49327 whole entry): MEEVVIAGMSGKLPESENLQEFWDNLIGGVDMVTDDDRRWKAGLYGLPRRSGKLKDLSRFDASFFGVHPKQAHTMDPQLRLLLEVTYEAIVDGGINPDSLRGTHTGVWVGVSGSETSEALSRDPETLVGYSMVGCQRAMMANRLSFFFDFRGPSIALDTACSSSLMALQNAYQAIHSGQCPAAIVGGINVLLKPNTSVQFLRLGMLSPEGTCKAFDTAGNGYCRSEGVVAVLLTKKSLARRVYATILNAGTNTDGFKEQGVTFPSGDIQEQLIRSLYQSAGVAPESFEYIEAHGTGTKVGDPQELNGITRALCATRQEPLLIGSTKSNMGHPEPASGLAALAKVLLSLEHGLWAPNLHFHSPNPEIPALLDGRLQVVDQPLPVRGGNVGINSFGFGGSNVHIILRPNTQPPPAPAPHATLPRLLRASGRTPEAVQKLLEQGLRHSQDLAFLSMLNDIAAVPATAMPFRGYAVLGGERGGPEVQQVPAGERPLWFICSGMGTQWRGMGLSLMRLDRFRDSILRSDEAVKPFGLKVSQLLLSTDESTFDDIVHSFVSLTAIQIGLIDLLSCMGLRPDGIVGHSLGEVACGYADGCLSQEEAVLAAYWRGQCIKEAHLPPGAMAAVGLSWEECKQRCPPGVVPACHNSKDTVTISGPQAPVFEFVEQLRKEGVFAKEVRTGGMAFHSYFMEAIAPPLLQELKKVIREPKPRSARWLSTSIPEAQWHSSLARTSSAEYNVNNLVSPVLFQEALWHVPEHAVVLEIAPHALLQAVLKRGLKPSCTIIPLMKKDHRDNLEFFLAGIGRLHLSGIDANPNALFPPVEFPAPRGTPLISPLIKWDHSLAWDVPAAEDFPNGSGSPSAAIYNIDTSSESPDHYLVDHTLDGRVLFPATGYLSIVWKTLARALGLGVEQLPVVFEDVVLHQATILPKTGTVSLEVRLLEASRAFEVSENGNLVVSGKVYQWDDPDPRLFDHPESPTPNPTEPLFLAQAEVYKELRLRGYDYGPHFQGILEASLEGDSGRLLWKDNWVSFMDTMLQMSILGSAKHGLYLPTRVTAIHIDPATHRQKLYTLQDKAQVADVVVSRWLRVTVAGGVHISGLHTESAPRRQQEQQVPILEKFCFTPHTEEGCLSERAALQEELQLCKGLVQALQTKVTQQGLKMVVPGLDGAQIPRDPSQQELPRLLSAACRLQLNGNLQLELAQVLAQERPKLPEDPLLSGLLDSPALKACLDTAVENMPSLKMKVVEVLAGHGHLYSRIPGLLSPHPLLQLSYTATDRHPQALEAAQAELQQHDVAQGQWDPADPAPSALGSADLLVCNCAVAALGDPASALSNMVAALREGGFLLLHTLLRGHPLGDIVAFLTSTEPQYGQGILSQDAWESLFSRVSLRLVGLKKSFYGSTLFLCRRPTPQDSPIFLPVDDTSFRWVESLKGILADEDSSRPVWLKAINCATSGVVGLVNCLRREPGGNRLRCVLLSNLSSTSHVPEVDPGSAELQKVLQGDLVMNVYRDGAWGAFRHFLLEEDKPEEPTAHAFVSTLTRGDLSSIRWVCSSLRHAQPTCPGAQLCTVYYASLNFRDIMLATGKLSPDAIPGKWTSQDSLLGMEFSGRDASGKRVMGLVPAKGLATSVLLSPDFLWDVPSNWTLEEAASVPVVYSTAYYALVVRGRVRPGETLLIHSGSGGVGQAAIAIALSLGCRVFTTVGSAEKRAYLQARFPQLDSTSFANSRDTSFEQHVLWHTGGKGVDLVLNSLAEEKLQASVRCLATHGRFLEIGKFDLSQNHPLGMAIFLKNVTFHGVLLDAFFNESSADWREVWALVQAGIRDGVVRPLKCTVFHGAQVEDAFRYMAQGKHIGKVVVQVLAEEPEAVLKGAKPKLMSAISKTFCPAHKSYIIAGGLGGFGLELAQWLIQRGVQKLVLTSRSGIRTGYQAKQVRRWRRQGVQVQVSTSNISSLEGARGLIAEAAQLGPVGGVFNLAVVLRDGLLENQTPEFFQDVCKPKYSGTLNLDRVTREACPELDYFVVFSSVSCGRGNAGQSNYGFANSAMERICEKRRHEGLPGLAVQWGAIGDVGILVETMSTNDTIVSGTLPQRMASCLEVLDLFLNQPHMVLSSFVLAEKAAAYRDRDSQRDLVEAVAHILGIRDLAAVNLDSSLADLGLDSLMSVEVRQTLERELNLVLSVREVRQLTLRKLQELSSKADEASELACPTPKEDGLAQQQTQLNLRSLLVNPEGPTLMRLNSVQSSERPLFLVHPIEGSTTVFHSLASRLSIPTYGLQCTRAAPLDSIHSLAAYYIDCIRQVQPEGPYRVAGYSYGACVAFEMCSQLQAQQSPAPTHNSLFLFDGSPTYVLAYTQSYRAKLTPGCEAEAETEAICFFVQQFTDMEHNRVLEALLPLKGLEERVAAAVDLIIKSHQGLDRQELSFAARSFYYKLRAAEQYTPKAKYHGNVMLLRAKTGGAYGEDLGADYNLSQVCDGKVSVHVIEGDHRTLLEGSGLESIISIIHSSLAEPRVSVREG
T5 sequence (P98170 whole entry): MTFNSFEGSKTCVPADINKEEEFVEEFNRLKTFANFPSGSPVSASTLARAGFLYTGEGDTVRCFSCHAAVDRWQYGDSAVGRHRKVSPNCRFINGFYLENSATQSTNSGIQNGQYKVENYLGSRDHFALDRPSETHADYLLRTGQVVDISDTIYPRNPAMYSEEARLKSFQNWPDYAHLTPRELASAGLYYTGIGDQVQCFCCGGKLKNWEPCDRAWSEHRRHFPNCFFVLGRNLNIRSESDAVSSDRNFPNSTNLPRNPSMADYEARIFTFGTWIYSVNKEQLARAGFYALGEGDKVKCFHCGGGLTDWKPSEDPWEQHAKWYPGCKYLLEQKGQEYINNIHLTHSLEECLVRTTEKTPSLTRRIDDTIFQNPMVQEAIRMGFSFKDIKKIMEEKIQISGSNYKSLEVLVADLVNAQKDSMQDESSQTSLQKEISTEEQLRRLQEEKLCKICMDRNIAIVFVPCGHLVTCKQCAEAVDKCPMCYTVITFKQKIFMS
T3 sequence (Q01196 whole entry, the tested form may be a part): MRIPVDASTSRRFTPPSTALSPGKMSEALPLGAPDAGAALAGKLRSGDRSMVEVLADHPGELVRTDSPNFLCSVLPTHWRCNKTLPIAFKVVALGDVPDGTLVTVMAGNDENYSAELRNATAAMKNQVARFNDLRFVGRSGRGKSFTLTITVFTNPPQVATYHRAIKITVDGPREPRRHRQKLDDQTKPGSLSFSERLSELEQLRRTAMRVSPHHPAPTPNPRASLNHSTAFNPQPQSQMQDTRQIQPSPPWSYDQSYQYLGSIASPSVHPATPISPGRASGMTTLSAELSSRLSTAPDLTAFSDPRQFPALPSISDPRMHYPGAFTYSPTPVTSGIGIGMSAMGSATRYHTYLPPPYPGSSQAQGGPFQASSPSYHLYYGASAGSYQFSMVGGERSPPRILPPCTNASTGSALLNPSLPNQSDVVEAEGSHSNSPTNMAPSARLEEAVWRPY
T3 sequence (Q13951 whole entry, the tested form may be a part): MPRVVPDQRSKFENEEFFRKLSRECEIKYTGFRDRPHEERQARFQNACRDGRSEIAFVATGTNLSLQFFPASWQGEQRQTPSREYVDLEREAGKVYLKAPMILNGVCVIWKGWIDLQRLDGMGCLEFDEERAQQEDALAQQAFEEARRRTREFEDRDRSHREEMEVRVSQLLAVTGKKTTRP
Chain of NADPH oxidase 4 (Q9NPH5 whole entry): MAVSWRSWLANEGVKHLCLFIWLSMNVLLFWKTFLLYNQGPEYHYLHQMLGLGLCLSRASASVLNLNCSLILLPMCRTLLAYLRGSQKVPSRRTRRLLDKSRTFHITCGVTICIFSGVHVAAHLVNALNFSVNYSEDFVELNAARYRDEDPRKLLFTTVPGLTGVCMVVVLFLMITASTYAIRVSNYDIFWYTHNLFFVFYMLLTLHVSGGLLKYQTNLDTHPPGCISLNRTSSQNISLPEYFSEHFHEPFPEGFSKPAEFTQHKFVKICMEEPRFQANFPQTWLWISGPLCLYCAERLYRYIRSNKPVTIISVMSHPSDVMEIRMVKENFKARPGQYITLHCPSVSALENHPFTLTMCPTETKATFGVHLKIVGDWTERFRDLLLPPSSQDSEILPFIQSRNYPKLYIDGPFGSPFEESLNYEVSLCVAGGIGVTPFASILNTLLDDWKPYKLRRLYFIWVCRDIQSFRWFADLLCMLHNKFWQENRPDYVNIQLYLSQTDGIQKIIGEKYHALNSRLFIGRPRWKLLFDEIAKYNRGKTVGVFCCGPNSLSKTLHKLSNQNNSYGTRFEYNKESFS

CC(=O)c1cc([N+](=O)[O-])c(Sc2ccc(Cl)cc2)s1
IC50 [1]: 92 µM (inactive)

Nc1nc(N2CCN(c3ccccn3)CC2)nc2ccccc12
EC50 [2]: > 50 µM (active) | EC50 [3]: 25.4 µM (inactive) | EC50 [4]: 32.2 µM (inactive)

CN(C)c1ccc(/C=N/Nc2c(Cl)cncc2Cl)cc1
IC50 [5]: 0.44 µM (active) | IC50 [6]: 4 µM (active) | IC50 [7]: 9 µM (active) | IC50 [8]: 20 µM (inactive) | IC50 [9]: > 10 µM (inactive)

Cc1cccn2c(=O)c(/C=C(\C#N)C(N)=O)c(N3CCN(Cc4ccc5c(c4)OCO5)CC3)nc12
IC50 [10]: > 100 µM (inactive) | IC50 [11]: > 100 µM (inactive) | IC50 [12]: 7.79 µM (active) | IC50 [13]: 9.39 µM (active)

COc1cc(C(=O)O)cc(NC(=O)c2cccs2)c1OC
IC50 [14]: > 100 µM (inactive) | IC50 [15]: > 100 µM (not active)

CCOC(=O)C1=C(C)N=c2sc(=Cc3ccc(OCC(=O)O)cc3)c(=O)n2C1c1ccc(Cl)cc1 (centres undefined)
IC50 [16]: 2.41 µM (active) | IC50 [17]: 4.23 µM (active) | IC50 [18]: 3.2 µM (active) | IC50 [19]: 3.82 µM (active) | IC50 [20]: 2.08 µM (active) | IC50 [21]: 0.52 µM (active) | IC50 [22]: 0.419 µM (active) | IC50 [23]: 2.74 µM (active) | IC50 [24]: 41.4 µM (active) | IC50 [25]: 8.42 µM (active) | IC50 [26]: > 66.6 µM (inactive) | IC50 [27]: 8.82 µM (active) | IC50 [28]: 12.5 µM (active) | IC50 [29]: 12 µM (active)
